Among the data in BindingDB's records for doi:10.1016/j.bmcl.2007.02.076 (Bristol-Myers Squibb Pharmaceutical Research Institute, 2007) are IC50 values, retold here.

The pIC50 is −log10 of the IC50, conventionally taken in molar units.

A short description of the assay: Inhibition of pTACE.

The structures appear in SMILES notation. pIC50: −log10 of the molar value. A value given as a limit tells only on which side of the number the result lay.

On to `Cc1cc(COc2ccc(C(=O)Nc3ccccc3C(=O)c3c[nH]c(=O)[nH]3)cc2)c2ccccc2n1` [4-((2-methylquinolin-4-yl)methoxy)-N-(2-(2-oxo-2,3-dihydro-1H-imidazole-5-carbonyl)phenyl)benzamide], for which the pIC50 is 8.05.

As to `Cc1cc(COc2ccc(C(=O)Nc3ccccc3Cc3c[nH]c(=O)[nH]3)cc2)c2ccccc2n1` [4-((2-methylquinolin-4-yl)methoxy)-N-(2-((2-oxo-2,3-dihydro-1H-imidazol-5-yl)methyl)phenyl)benzamide], the pIC50 is 5.80.

As to `Cc1cc(COc2ccc(C(=O)Nc3ccccc3Cc3n[nH]c(=O)[nH]3)cc2)c2ccccc2n1` [4-((2-methylquinolin-4-yl)methoxy)-N-(2-((5-oxo-4,5-dihydro-1H-1,2,4-triazol-3-yl)methyl)phenyl)benzamide], the pIC50 was 7.47.

`Cc1cc(COc2ccc(C(=O)NCc3n[nH]c(=O)[nH]3)cc2)c2ccccc2n1` [4-((2-methylquinolin-4-yl)methoxy)-N-((5-oxo-4,5-dihydro-1H-1,2,4-triazol-3-yl)methyl)benzamide] had a pIC50 of less than 6.00.

Compound `Cc1cc(COc2ccc(S(=O)(=O)NCc3n[nH]c(=O)[nH]3)cc2)c2ccccc2n1` [4-((2-methylquinolin-4-yl)methoxy)-N-((5-oxo-4,5-dihydro-1H-1,2,4-triazol-3-yl)methyl)benzenesulfonamide] showed a pIC50 of 6.36.

`Cc1cc(COc2ccc(C(=O)Nc3ccccc3-c3[nH]c(=O)[nH]c3O)cc2)c2ccccc2n1` [N-(2-(2,5-dioxoimidazolidin-4-yl)phenyl)-4-((2-methylquinolin-4-yl)methoxy)benzamide]: the pIC50 was 7.85.

`Cc1cc(COc2ccc(C(=O)NCC3(C)NC(=O)NC3=O)cc2)c2ccccc2n1` (stereo not drawn) [N-((4-methyl-2,5-dioxoimidazolidin-4-yl)methyl)-4-((2-methylquinolin-4-yl)methoxy)benzamide] gave a pIC50 of 7.54.

Consider `Cc1cc(COc2ccc(S(=O)(=O)NCC3(C)NC(=O)NC3=O)cc2)c2ccccc2n1` (stereo not drawn) [N-((4-methyl-2,5-dioxoimidazolidin-4-yl)methyl)-4-((2-methylquinolin-4-yl)methoxy)benzenesulfonamide], for which the pIC50 was 7.43.
